The record followed here is patent publication US8293729B2 (Boehringer Ingelheim International GmbH, priority 2009, dated 2012).

pEC50: −log10 of the molar value.

The first assay addresses T1, human GPR119 receptor (Homo sapiens, UniProt Q8TDV5, S329A/T327A).
T1 construct: N-terminal leader […]; expressed in transfected cells
T1 sequence (Q8TDV5 with tags, fused parts or gaps T327A/S329A): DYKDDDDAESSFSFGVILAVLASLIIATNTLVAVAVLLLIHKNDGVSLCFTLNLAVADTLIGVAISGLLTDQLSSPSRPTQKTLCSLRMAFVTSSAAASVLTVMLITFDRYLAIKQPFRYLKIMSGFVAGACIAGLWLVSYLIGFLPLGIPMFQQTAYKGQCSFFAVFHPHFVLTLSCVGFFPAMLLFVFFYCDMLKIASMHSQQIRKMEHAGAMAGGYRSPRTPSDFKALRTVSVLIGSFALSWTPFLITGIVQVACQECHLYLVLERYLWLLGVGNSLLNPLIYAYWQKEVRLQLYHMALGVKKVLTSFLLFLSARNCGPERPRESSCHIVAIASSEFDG
Description: cAMP assay (LANCE cAMP-384) in HEK293 cells stably expressing mutant human GPR119 receptor. Type of assay: cell-based. To be noted: HEK293, 20 min; single concentration 10 μM; given where no EC50 value could be determined; read-out: % stimulation at 10 μM. In short, it runs like this: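 Agonist EC50 came from nonlinear regression over 12 concentrations (30 μM–100 pM), with % stimulation at 10 μM where no EC50 was obtained. Cells: stable HEK293 with mutant human GPR119 (T327A/S329A), 20 min compound at 37° C; cAMP read by LANCE kit with standard curve.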
Take `COc1cccc(-c2cc(F)c(N3CCC(=NOC4CCN(C(=O)OC(C)C)CC4)CC3)cc2F)n1` [Example 27-11]: the activation at 10 µM was determined as 80%. Same read-out and setting: then `CC(C)OC(=O)N1CCC(ON=C2CCN(c3cc(F)c(-c4nnn[nH]4)cc3F)CC2)CC1` [Example 27-28], with 86%; and `COc1ncc(-c2cc(F)c(N3CCC(=NOC4CCN(C(=O)OC(C)C)CC4)CC3)cc2F)c(OC)n1` [Example 27-31], with 70%.

The same assay, now with this note: cAMP accumulation, HEK293 cells stably expressing mutant human GPR119; read-out: EC50.
Consider `CC(C)OC(=O)N1CCC(ON=C2CCN(c3cc(F)c(-c4ccncc4)cc3F)CC2)CC1` [Example 27-5], for which the pEC50 is 6.42. Still for that read-out and setting: to `CC(C)OC(=O)N1CCC(ON=C2CCN(c3cc(F)c(-c4cncnc4)cc3F)CC2)CC1` [Example 27-6] belongs 6.61; to `CC(C)OC(=O)N1CCC(ON=C2CCN(c3cc(F)c(-c4ccc[nH]4)cc3F)CC2)CC1` [Example 27-7], 6.36; to `CC(C)OC(=O)N1CCC(ON=C2CCN(c3cc(F)c(-c4cc[nH]n4)cc3F)CC2)CC1` [Example 27-9], 6.63. `CC(C)OC(=O)N1CCC(ON=C2CCN(c3cc(F)c(-c4cn[nH]c4)cc3F)CC2)CC1` [Example 27-10]: the pEC50 is 6.75. On to `CC(C)OC(=O)N1CCC(ON=C2CCN(c3cc(F)c(-c4ccsc4)cc3F)CC2)CC1` [Example 27-12], for which the pEC50 was 6.61. `CC(C)OC(=O)N1CCC(ON=C2CCN(c3cc(F)c(-c4c[nH]cn4)cc3F)CC2)CC1` [Example 27-14]: the pEC50 is 6.82. Still for that read-out and setting: to `CC(C)OC(=O)N1CCC(ON=C2CCN(c3cc(F)c(-c4cnc(N)nc4)cc3F)CC2)CC1` [Example 27-15] belongs 6.29. As to `CC(C)OC(=O)N1CCC(ON=C2CCN(c3cc(F)c(-c4nccn4C)cc3F)CC2)CC1` [Example 27-16], the pEC50 was 5.26. For the compound `CC(C)OC(=O)N1CCC(ON=C2CCN(c3cc(F)c(-c4nccs4)cc3F)CC2)CC1` [Example 27-18], the pEC50 is 6.86. Take `CC(C)OC(=O)N1CCC(ON=C2CCN(c3cc(F)c(-c4cscn4)cc3F)CC2)CC1` [Example 27-19]: the pEC50 is 5.51.

For `CC(C)OC(=O)N1CCC(ON=C2CCN(c3cc(F)c(-c4ncccn4)cc3F)CC2)CC1` [Example 27-20], the pEC50 is 6.57. As for `CCc1cnc(-c2cc(F)c(N3CCC(=NOC4CCN(C(=O)OC(C)C)CC4)CC3)cc2F)nc1` [Example 27-21], the pEC50 is 6.29. Same read-out and setting: then `CC(C)OC(=O)N1CCC(ON=C2CCN(c3cc(F)c(-c4ncc[nH]4)cc3F)CC2)CC1` [Example 27-22], with 7.27. Same read-out and setting: then `Cc1ccc(-c2cc(F)c(N3CCC(=NOC4CCN(C(=O)OC(C)C)CC4)CC3)cc2F)s1` [Example 27-23], with 6.56. The same measure, in the same setting: then `Cc1ccsc1-c1cc(F)c(N2CCC(=NOC3CCN(C(=O)OC(C)C)CC3)CC2)cc1F` [Example 27-24], with 6.48. Regarding `Cc1nc(C)c(-c2cc(F)c(N3CCC(=NOC4CCN(C(=O)OC(C)C)CC4)CC3)cc2F)s1` [Example 27-25], the pEC50 is less than 5.00. Same read-out and setting: to `Cc1ccc(-c2cc(F)c(N3CCC(=NOC4CCN(C(=O)OC(C)C)CC4)CC3)cc2F)nc1` [Example 27-26] belongs 6.06.

Turning to `CC(C)OC(=O)N1CCC(ON=C2CCN(c3cc(F)c(-c4ccccn4)cc3F)CC2)CC1` [Example 27-27], the pEC50 is 6.80. Same read-out and setting: to `Cc1ccc(-c2cc(F)c(N3CCC(=NOC4CCN(C(=O)OC(C)C)CC4)CC3)cc2F)cn1` [Example 27-30] belongs 6.36; to `CC(C)OC(=O)N1CCC(ON=C2CCN(c3cc(F)c(-c4ccc5[nH]ccc5c4)cc3F)CC2)CC1` [Example 27-32], 5.86; to `COc1ccc(-c2cc(F)c(N3CCC(=NOC4CCN(C(=O)OC(C)C)CC4)CC3)cc2F)cn1` [Example 27-33], 6.05. Regarding `CC(C)OC(=O)N1CCC(ON=C2CCN(c3cc(F)c(-c4cnn(C)c4)cc3F)CC2)CC1` [Example 27-34], the pEC50 was 6.90.

Still in this assay, the particulars now being: the 15th table; read-out: EC50.
Turning to `CC(C)OC(=O)N1CCC(ON=C2CCN(c3cc(F)c(C(=O)N(C)C)cc3F)CC2)CC1` [Example 29-1, 4-[1-(4-Dimethylcarbamoyl-2,5-difluoro-phenyl)-piperidin-4-ylideneaminooxy]-piperidine-1-carboxylic acid isopropyl ester], the pEC50 was 6.89. Same read-out and setting: to `CC(C)OC(=O)N1CCC(ON=C2CCN(c3cc(F)c(C(=O)NCCN(C)C)cc3F)CC2)CC1` [Example 29-2] belongs 6.35; to `CC(C)OC(=O)N1CCC(ON=C2CCN(c3cc(F)c(C(=O)N4CCNCC4)cc3F)CC2)CC1` [Example 29-3], 6.29; to `CC(C)OC(=O)N1CCC(ON=C2CCN(c3cc(F)c(C(=O)N4CCN(C)CC4)cc3F)CC2)CC1` [Example 29-4], 7.10. On the same count and under the same terms, then `CNCCN(C)C(=O)c1cc(F)c(N2CCC(=NOC3CCN(C(=O)OC(C)C)CC3)CC2)cc1F` [Example 29-5], with 6.67; and `CC(C)OC(=O)N1CCC(ON=C2CCN(c3cc(F)c(C(=O)NCCN)cc3F)CC2)CC1` [Example 29-6], with 6.42; and `CC(C)OC(=O)N1CCC(ON=C2CCN(c3cc(F)c(C(=O)NCCCN)cc3F)CC2)CC1` [Example 29-7], with 7.38. The same measure, in the same setting: then `CC(CO)NC(=O)c1cc(F)c(N2CCC(=NOC3CCN(C(=O)OC(C)C)CC3)CC2)cc1F` (stereo not shown) [Example 29-8], with 7.09.

Take `CC(C)OC(=O)N1CCC(ON=C2CCN(c3cc(F)c(C(=O)NCCCO)cc3F)CC2)CC1` [Example 29-9]: the pEC50 is 7.03.

On to `COCCCNC(=O)c1cc(F)c(N2CCC(=NOC3CCN(C(=O)OC(C)C)CC3)CC2)cc1F` [Example 29-10], for which the pEC50 was 7.55. `CC(C)OC(=O)N1CCC(ON=C2CCN(c3cc(F)c(C(=O)NCCO)cc3F)CC2)CC1` [Example 29-11]: the pEC50 is 7.08. As for `COCCNC(=O)c1cc(F)c(N2CCC(=NOC3CCN(C(=O)OC(C)C)CC3)CC2)cc1F` [Example 29-12], the pEC50 is 7.92. As for `CC(C)OC(=O)N1CCC(ON=C2CCN(c3cc(F)c(C(=O)N4CCCC[C@H]4CN4CCCC4)cc3F)CC2)CC1` [Example 29-31], the pEC50 was 6.65. Same read-out and setting: to `CC(C)OC(=O)N1CCC(ON=C2CCN(c3cc(F)c(C(=O)NCCC4CCNCC4)cc3F)CC2)CC1` [Example 29-32] belongs 7.14; to `CC(C)OC(=O)N1CCC(ON=C2CCN(c3cc(F)c(C(=O)N4CCC(CN(C)C)CC4)cc3F)CC2)CC1` [Example 29-47], 6.58; to `CC(C)OC(=O)N1CCC(ON=C2CCN(c3cc(F)c(C(=O)N4CCC(CN5CCCC5)CC4)cc3F)CC2)CC1` [Example 29-48], 7.16. As for `CC(C)OC(=O)N1CCC(ON=C2CCN(c3cc(F)c(C(=O)N4CCC[C@@H]4CN)cc3F)CC2)CC1` [Example 29-50], the pEC50 was 6.88. The same measure, in the same setting: to `CC(C)OC(=O)N1CCC(ON=C2CCN(c3cc(F)c(C(=O)N4CCCC(CN5CCCCC5)C4)cc3F)CC2)CC1` (stereo not shown) [Example 29-56] belongs 6.88; to `CC(C)OC(=O)N1CCC(ON=C2CCN(c3cc(F)c(C(=O)N4CCCCC4CN)cc3F)CC2)CC1` (stereo not shown) [Example 29-57], 6.73. Same read-out and setting: to `CC(C)OC(=O)N1CCC(ON=C2CCN(c3cc(F)c(C(=O)N4CCC[C@H]4CN)cc3F)CC2)CC1` [Example 29-58] belongs 6.72.

The assay is the same for the next values; noted with them: the 19th table; unit inferred; read-out: EC 50.
As to `CCc1cnc(N2CCC(ON=C3CCN(c4cc(F)c(C(=O)NCC5COCCN5)cc4F)CC3)CC2)nc1` (stereo not shown) [Example 29-87], the pEC50 was 6.89. Same read-out and setting: to `CCc1cnc(N2CCC(ON=C3CCN(c4cc(F)c(C(=O)N5CCC[C@@H](N)C5)cc4F)CC3)CC2)nc1` [Example 29-88] belongs 6.66. As to `CCc1cnc(N2CCC(ON=C3CCN(c4cc(F)c(C(=O)N5CCC[C@H](N)C5)cc4F)CC3)CC2)nc1` [Example 29-89], the pEC50 was 7.13.

For `CCc1cnc(N2CCC(ON=C3CCN(c4cc(F)c(C(=O)NCC5CCNC5)cc4F)CC3)CC2)nc1` (stereo not shown) [Example 29-90], the pEC50 was 7.17. The same measure, in the same setting: then `CCc1cnc(N2CCC(ON=C3CCN(c4cc(F)c(C(=O)NCC5CCCNC5)cc4F)CC3)CC2)nc1` (stereo not shown) [Example 29-93], with 7.25. Same read-out and setting: then `CCc1cnc(N2CCC(ON=C3CCN(c4cc(F)c(C(=O)N5CCNC[C@@H]5C)cc4F)CC3)CC2)nc1` [Example 29-110], with 6.59; and `CCc1cnc(N2CCC(ON=C3CCN(c4cc(F)c(C(=O)N5C[C@H]6CNC[C@H]6C5)cc4F)CC3)CC2)nc1` [Example 29-111], with 6.53. In the case of `CCc1cnc(N2CCC(ON=C3CCN(c4cc(F)c(C(=O)NCCC5CCNCC5)cc4F)CC3)CC2)nc1` [Example 29-112], the pEC50 is 7.42. On the same count and under the same terms, then `CCc1cnc(N2CCC(ON=C3CCN(c4cc(F)c(C(=O)NCC5CNCCO5)cc4F)CC3)CC2)nc1` (stereo not shown) [Example 29-113], with 7.59; and `CCc1cnc(N2CCC(ON=C3CCN(c4cc(F)c(C(=O)N5CCCNCC5)cc4F)CC3)CC2)nc1` [Example 29-114], with 6.41. On the same count and under the same terms, then `CCc1cnc(N2CCC(ON=C3CCN(c4cc(F)c(C(=O)N5C[C@@H]6C[C@H]5CN6)cc4F)CC3)CC2)nc1` [Example 29-115], with 5.70.

For the compound `CCc1cnc(N2CCC(ON=C3CCN(c4cc(F)c(C(=O)NC5CNC5)cc4F)CC3)CC2)nc1` [Example 29-116], the pEC50 is 6.49.
